Test results taken from US11840528B2 (Hoffmann-La Roche Inc., priority 2018, dated 2023).

What was measured:
h-GABA-A α5β3γ2 [1] = molecular target: T1, h-GABA-A α5β3γ2 (Homo sapiens, UniProt P18507+P31644); experiment: [3H]flumazenil competition binding assay, membranes of HEK293 cells expressing GABAA receptors; conditions: displacement of [3H]-Flumazenil 0.5 nM, HEK293 cells expressing human receptors, mean of two determinations; Table 1
How it was run: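 Membranes from HEK293 cells transiently expressing human α5β3γ2 GABAA receptors, in Krebs-tris buffer pH 7.5, competed against [3H]flumazenil for 1 hour at 4° C to equilibrium. Bound radioactivity collected on GF/C filters and counted by liquid scintillation; Ki values are means of two determinations.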

h-GABA-A α5β3γ2 [2] = molecular target: T1, h-GABA-A α5β3γ2; experiment: Two-electrode voltage clamp electrophysiology in Xenopus laevis oocytes expressing GABAA receptors, modulation of GABA EC20 current; assay type: cell-based; parameters: host or cells: Xenopus laevis oocytes micro-injected with RNA transcripts of the subunits; conditions: Table 1; for Efficacy (GABA) %: % modulation of GABA EC20 = 100*(Fold increase-1); for Fold increase h-GABA-A α5β3γ2 oocyte: test compound at approx. 30 fold its Ki, GABA at EC20
How it was run: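 Human α5β3γ2 GABAA receptors were expressed in Xenopus oocytes by RNA injection, with γ2 RNA 5–10-fold higher, and recorded 3–5 days later by two-electrode voltage clamp at −80 mV at room temperature. The test compound, at about 30× its Ki, was co-applied during a second GABA EC20 pulse. Efficacy is the extremum of the point-by-point ratio to the first response, expressed as 100*(Fold increase−1).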

| SMILES | Ki (h-GABA-A α5β3γ2 [1]) | Efficacy (GABA) % (h-GABA-A α5β3γ2 [2]) | Fold increase h-GABA-A α5β3γ2 oocyte (h-GABA-A α5β3γ2 [2]) |
| --- | --- | --- | --- |
| Cc1ccc(-c2noc(C)c2Cn2ncc(N3CC[C@@H](OC(C)(C)C)C3)cc2=O)nn1 [Example 261, 5-[(3R)-3-tert-butoxypyrrolidin-1-yl]-2-[[5-methyl-3-(6-methylpyridazin-3-yl)isoxazol-4-yl]methyl]pyridazin-3-one] | 3.6 nM | 77% | 1.77 |
| Cc1onc(-c2ccc(C(F)(F)F)nc2)c1Cn1ncc(N2C[C@@H](C)O[C@@H](C)C2)cc1=O [Example 39, 5-(cis-2,6-dimethylmorpholin-4-yl)-2-[[5-methyl-3-[6-(trifluoromethyl)-3-pyridyl]isoxazol-4-yl]methyl]pyridazin-3-one] | 3.2 nM | 198% | 2.98 |
| Cc1ccc(-c2noc(C)c2Cn2ncc(N3CC4(CCC(F)CO4)C3)cc2=O)cn1 (single isomer, unassigned) [Example 276] | 36.2 nM | 102% | 2.02 |
| Cc1ccc(-c2noc(C)c2Cn2ncc(-c3ccnc(OC(F)F)c3)cc2=O)cn1 [Example 175, 5-(2-(difluoromethoxy)pyridin-4-yl)-2-((5-methyl-3-(6-methylpyridin-3-yl)isoxazol-4-yl)methyl)pyridazin-3(2H)-one] | 6.6 nM | 86% | 1.86 |
| Cc1onc(-c2ccc(Cl)nc2)c1Cn1ncc(N2CC3(CCCCO3)C2)cc1=O [Example 233, 2-((3-(6-chloropyridin-3-yl)-5-methylisoxazol-4-yl)methyl)-5-(5-oxa-2-azaspiro[3.5]nonan-2-yl)pyridazin-3(2H)-one] | 33.6 nM | 82% | 1.82 |
| CCOC1CN(c2cnn(Cc3c(-c4ccc(C)nc4)noc3C)c(=O)c2Cl)C1 [Example 268, 4-chloro-5-(3-ethoxyazetidin-1-yl)-2-((5-methyl-3-(6-methylpyridin-3-yl)isoxazol-4-yl)methyl)pyridazin-3(2H)-one] | 16.6 nM | 184% | 2.84 |
| CCO[C@@H]1CN(c2cnn(Cc3c(-c4ccc(Cl)nc4)noc3C)c(=O)c2)[C@@H]1C [Example 294, 2-((3-(6-chloropyridin-3-yl)-5-methylisoxazol-4-yl)methyl)-5-((2R,3R)-3-ethoxy-2-methylazetidin-1-yl)pyridazin-3(2H)-one] | 41.8 nM | 117% | 2.17 |
| Cc1ccc(-c2noc(C)c2Cn2ncc(N3CC[C@@H](C(=O)NC4CC4)C3)cc2=O)cn1 [Example 56, (3R)—N-cyclopropyl-1-[1-[[5-methyl-3-(6-methyl-3-pyridyl)isoxazol-4-yl]methyl]-6-oxo-pyridazin-4-yl]pyrrolidine-3-carboxamide] | 33.4 nM | 247% | 3.47 |
| Cc1ncccc1N1CCN(c2cnn(Cc3c(-c4ccc(Cl)nc4)noc3C)c(=O)c2)CC1 [Example 285, 2-((3-(6-chloropyridin-3-yl)-5-methylisoxazol-4-yl)methyl)-5-(4-(2-methylpyridin-3-yl)piperazin-1-yl)pyridazin-3(2H)-one] | 2.6 nM | 84% | 1.84 |
| Cc1ccc(-c2noc(C)c2Cn2ncc(-c3ccc4ncc(C)n4c3)cc2=O)cn1 [Example 218, 2-((5-methyl-3-(6-methylpyridin-3-yl)isoxazol-4-yl)methyl)-5-(3-methylimidazo[1,2-a]pyridin-6-yl)pyridazin-3(2H)-one] | 19.8 nM | 84% | 1.84 |
| Cc1ccc(-c2noc(C)c2Cn2ncc(N3CCN(C4CC4)[C@@H](C)C3)cc2=O)cn1 [Example 60, 5-[(3S)-4-cyclopropyl-3-methyl-piperazin-1-yl]-2-[[5-methyl-3-(6-methyl-3-pyridyl)isoxazol-4-yl]methyl]pyridazin-3-one] | 10.2 nM | 97% | 1.97 |

Continued by falling Ki (h-GABA-A α5β3γ2 [1]), values first:

| Ki (h-GABA-A α5β3γ2 [1]) | Efficacy (GABA) % (h-GABA-A α5β3γ2 [2]) | Fold increase h-GABA-A α5β3γ2 oocyte (h-GABA-A α5β3γ2 [2]) | SMILES |
| --- | --- | --- | --- |
| 40.2 nM | 167% | 2.67 | C[C@@H]1CN(c2cnn(Cc3conc3-c3ccc(C(F)(F)F)nc3)c(=O)c2)C[C@H](C)O1 [Example 72, 5-(cis-2,6-dimethylmorpholin-4-yl)-2-[[3-[6-(trifluoromethyl)-3-pyridyl]isoxazol-4-yl]methyl]pyridazin-3-one] |
| 27.7 nM | 84% | 1.84 | Cc1onc(-c2ccc(Cl)nc2)c1Cn1ncc(N2CC3(CC(F)CCO3)C2)cc1=O (single isomer, unassigned) [Example 296, (R or S)-2-((3-(6-chloropyridin-3-yl)-5-methylisoxazol-4-yl)methyl)-5-(8-fluoro-5-oxa-2-azaspiro[3.5]nonan-2-yl)pyridazin-3(2H)-one] |
| 25.2 nM | 146% | 2.46 | Cc1ccc(-c2noc(C)c2Cn2ncc(-c3ccc(OC(C)C)nc3)cc2=O)cn1 [Example 190, 5-(6-isopropoxy-3-pyridyl)-2-((5-methyl-3-(6-methyl-3-pyridyl)isoxazol-4-yl)methyl)pyridazin-3-one] |
| 21.7 nM | 157% | 2.57 | Cc1ccc(-c2nocc2Cn2ncc(N3CCO[C@@H](C)C3)cc2=O)cn1 [Example 91, 5-[(2S)-2-methylmorpholin-4-yl]-2-[[3-(6-methyl-3-pyridyl)isoxazol-4-yl]methyl]pyridazin-3-one] |
| 19.3 nM | 132% | 2.32 | COC1CCN(c2cnn(Cc3c(-c4ccc(C)nc4)noc3C)c(=O)c2)CC1 [Example 139, 5-(4-methoxy-1-piperidyl)-2-[[5-methyl-3-(6-methyl-3-pyridyl)isoxazol-4-yl]methyl]pyridazin-3-one] |
| 17 nM | 105% | 2.05 | Cc1ccc(-c2noc(C)c2Cn2ncc(N3CC4(C[C@H](O)CO4)C3)cc2=O)cn1 [Example 131, 5-[(7S)-7-hydroxy-5-oxa-2-azaspiro[3.4]octan-2-yl]-2-[[5-methyl-3-(6-methyl-3-pyridyl)isoxazol-4-yl]methyl]pyridazin-3-one] |
| 15.7 nM | 134% | 2.34 | Cc1ccc(-c2noc(C)c2Cn2ncc(N3CC(F)C3)cc2=O)cn1 [Example 181, 5-(3-fluoroazetidin-1-yl)-2-[[5-methyl-3-(6-methyl-3-pyridyl)isoxazol-4-yl]methyl]pyridazin-3-one] |
| 15.2 nM | 107% | 2.07 | Cc1ccc(-c2noc(C)c2Cn2ncc(N3CCC4(CC3)COC4)cc2=O)cn1 [Example 46, 2-[[5-methyl-3-(6-methyl-3-pyridyl)isoxazol-4-yl]methyl]-5-(2-oxa-7-azaspiro[3.5]nonan-7-yl)pyridazin-3-one] |
| 14.6 nM | 99% | 1.99 | Cc1onc(-c2ccc(Cl)nc2)c1Cn1ncc(N2CC(OC(F)F)C2)cc1=O [Example 255, 2-((3-(6-chloropyridin-3-yl)-5-methylisoxazol-4-yl)methyl)-5-(3-(difluoromethoxy)azetidin-1-yl)pyridazin-3(2H)-one] |
| 10.7 nM | 130% | 2.3 | Cc1onc(-c2ccc(Cl)nc2)c1Cn1ncc(N2CC3(CCC(F)CO3)C2)cc1=O (single isomer, unassigned) [Example 297] |
| 9.4 nM | 140% | 2.4 | Cc1ccc(-c2noc(C)c2Cn2ncc(N3CC(OC(F)F)C3)cc2=O)cn1 [Example 168, 5-[3-(difluoromethoxy)azetidin-1-yl]-2-[[5-methyl-3-(6-methyl-3-pyridyl)isoxazol-4-yl]methyl]pyridazin-3-one] |
| 9.2 nM | 90% | 1.9 | Cc1onc(-c2ccc(C(F)(F)F)nn2)c1Cn1ncc(N2CC3(CCCCO3)C2)cc1=O [Example 335, 2-((5-methyl-3-(6-(trifluoromethyl)pyridazin-3-yl)isoxazol-4-yl)methyl)-5-(5-oxa-2-azaspiro[3.5]nonan-2-yl)pyridazin-3(2H)-one] |
| 5.9 nM | 41% | 1.41 | Cc1cc(-c2noc(C)c2Cn2ncc(N3CCN(C4CC4)CC3)cc2=O)no1 [Example 63, 5-(4-cyclopropylpiperazin-1-yl)-2-[[5-methyl-3-(5-methylisoxazol-3-yl)isoxazol-4-yl]methyl]pyridazin-3-one] |
| 1.9 nM | 164% | 2.64 | Cc1ccc(-c2noc(C)c2Cn2ncc(N3CCC4(CC3)CC(F)CCO4)cc2=O)nn1 (single isomer, unassigned) [Example 326] |
| 1.2 nM | 142% | 2.42 | Cc1ccc(-c2noc(C)c2Cn2ncc(N3CCC(n4ccnc4C)CC3)cc2=O)cn1 [Example 110, 5-[4-(2-methylimidazol-1-yl)-1-piperidyl]-2-[[5-methyl-3-(6-methyl-3-pyridyl)isoxazol-4-yl]methyl]pyridazin-3-one] |
